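The compound was tested at five concentrations on cells cultured in 96-well plates, with a 48-hour exposure period. GI50 is the concentration that inhibits growth by half. TGI marks complete inhibition of growth.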
Experiments:
Experiment in all cases: NCI tumour cell line growth inhibition, 48 h
[1] = tested on: 786-0 renal
[2] = tested on: A498 renal
[3] = tested on: A549 NSCLC
[4] = tested on: ACHN renal
[5] = tested on: BT-549 breast
[6] = tested on: CAKI-1 renal
[7] = tested on: CCRF-CEM leukemia
[8] = tested on: COLO 205 colon
[9] = tested on: DU-145 prostate
[10] = tested on: EKVX NSCLC
[11] = tested on: HCC-2998 colon
[12] = tested on: HCT-116 colon
[13] = tested on: HCT-15 colon
[14] = tested on: HL-60(TB) leukemia
[15] = tested on: HOP-62 NSCLC
[16] = tested on: HOP-92 NSCLC
[17] = tested on: HS 578T breast
[18] = tested on: HT29 colon
[19] = tested on: IGROV1 ovarian
[20] = tested on: K-562 leukemia
[21] = tested on: KM12 colon
[22] = tested on: LOX IMVI melanoma
[23] = tested on: M14 melanoma
[24] = tested on: MALME-3M melanoma
[25] = tested on: MCF7 breast
[26] = tested on: MDA-MB-231 breast
[27] = tested on: MDA-MB-435
[28] = tested on: MOLT-4 leukemia
[29] = tested on: NCI-H226 lung
[30] = tested on: NCI-H23 lung
[31] = tested on: NCI-H460 lung
[32] = tested on: NCI-H522 lung
[33] = tested on: NCI/ADR-RES ovarian
[34] = tested on: OVCAR-3 ovarian
[35] = tested on: OVCAR-4 ovarian
[36] = tested on: OVCAR-5 ovarian
[37] = tested on: OVCAR-8 ovarian
[38] = tested on: PC-3 prostate
[39] = tested on: RPMI-8226 leukemia
[40] = tested on: RXF 393 renal
[41] = tested on: SF-268 CNS
[42] = tested on: SF-295 CNS
[43] = tested on: SF-539 CNS
[44] = tested on: SK-MEL-2 melanoma
[45] = tested on: SK-MEL-28 melanoma
[46] = tested on: SK-MEL-5 melanoma
[47] = tested on: SK-OV-3 ovarian
[48] = tested on: SN12C renal
[49] = tested on: SNB-19 CNS
[50] = tested on: SNB-75 CNS
[51] = tested on: SR leukemia
[52] = tested on: SW-620 colon
[53] = tested on: T-47D breast
[54] = tested on: TK-10 renal
[55] = tested on: U251 CNS
[56] = tested on: UACC-257 melanoma
[57] = tested on: UACC-62 melanoma
[58] = tested on: UO-31 renal

Compound: C=CCc1ccc(O)c(-c2ccc(O)c(CC=C)c2)c1
- GI50 [1]: 16.8 µM
- TGI [1]: 33.5 µM
- GI50 [2]: 17.4 µM
- TGI [2]: 31.9 µM
- GI50 [3]: 30.7 µM
- TGI [3]: > 100 µM
- GI50 [4]: 15.8 µM
- TGI [4]: 30.6 µM
- GI50 [5]: 13.2 µM
- TGI [5]: 27.5 µM
- GI50 [6]: 14.1 µM
- TGI [6]: 29.4 µM
- GI50 [7]: 13.1 µM
- TGI [7]: > 100 µM
- GI50 [8]: 18.5 µM
- TGI [8]: 34.1 µM
- GI50 [9]: 15.8 µM
- TGI [9]: 30.9 µM
- GI50 [10]: 7.11 µM
- TGI [10]: 23.3 µM
- GI50 [11]: 18.4 µM
- TGI [11]: 36.5 µM
- GI50 [12]: 20 µM
- TGI [12]: > 54 µM
- GI50 [13]: 16.5 µM
- TGI [13]: 33.7 µM
- GI50 [14]: 9.66 µM
- TGI [14]: > 52.3 µM
- GI50 [15]: 20 µM
- TGI [15]: 39.8 µM
- GI50 [16]: 13.9 µM
- TGI [16]: 31.1 µM
- GI50 [17]: 14.2 µM
- TGI [17]: 39.7 µM
- GI50 [18]: 23.3 µM
- TGI [18]: 53.8 µM
- GI50 [19]: 5.67 µM
- TGI [19]: 49.5 µM
- GI50 [20]: 8.54 µM
- TGI [20]: > 46.1 µM
- GI50 [21]: 13.6 µM
- TGI [21]: 34 µM
- GI50 [22]: 15.7 µM
- TGI [22]: 34.3 µM
- GI50 [23]: 21.4 µM
- TGI [23]: 48.4 µM
- GI50 [24]: 17.1 µM
- TGI [24]: 34.9 µM
- GI50 [25]: 8.06 µM
- TGI [25]: 26.2 µM
- GI50 [26]: 12.1 µM
- TGI [26]: 25.6 µM
- GI50 [27]: 14.7 µM
- TGI [27]: 31.5 µM
- GI50 [28]: 4.94 µM
- TGI [28]: > 39.9 µM
- GI50 [29]: 18.4 µM
- TGI [29]: 36.9 µM
- GI50 [30]: 16.3 µM
- TGI [30]: 34.4 µM
- GI50 [31]: 14.1 µM
- TGI [31]: 35.3 µM
- GI50 [32]: 10.4 µM
- TGI [32]: 26.2 µM
- GI50 [33]: 15.3 µM
- TGI [33]: 33.9 µM
- GI50 [34]: 14.5 µM
- TGI [34]: 30.6 µM
- GI50 [35]: 15.5 µM
- TGI [35]: 35.8 µM
- GI50 [36]: 16.8 µM
- TGI [36]: 38.9 µM
- GI50 [37]: 32.8 µM
- TGI [37]: > 60.9 µM
- GI50 [38]: 15.2 µM
- TGI [38]: 33.2 µM
- GI50 [39]: 14.6 µM
- TGI [39]: > 55.9 µM
- GI50 [40]: 18.9 µM
- TGI [40]: 47.3 µM
- GI50 [41]: 10.8 µM
- TGI [41]: 28 µM
- GI50 [42]: 19.6 µM
- TGI [42]: 44.7 µM
- GI50 [43]: 16.6 µM
- TGI [43]: 31.8 µM
- GI50 [44]: 14.5 µM
- TGI [44]: 33 µM
- GI50 [45]: 16.6 µM
- TGI [45]: 31 µM
- GI50 [46]: 10.8 µM
- TGI [46]: 23.4 µM
- GI50 [47]: 22.1 µM
- TGI [47]: 50.1 µM
- GI50 [48]: 14.4 µM
- TGI [48]: 29.6 µM
- GI50 [49]: 21.1 µM
- TGI [49]: 37 µM
- GI50 [50]: 22.1 µM
- TGI [50]: > 46.6 µM
- GI50 [51]: 14.8 µM
- TGI [51]: > 100 µM
- GI50 [52]: 18.7 µM
- TGI [52]: 36.9 µM
- GI50 [53]: 20.3 µM
- TGI [53]: > 53.9 µM
- GI50 [54]: 16 µM
- TGI [54]: 33.9 µM
- GI50 [55]: 14.3 µM
- TGI [55]: 31.8 µM
- GI50 [56]: 17.1 µM
- TGI [56]: 40.6 µM
- GI50 [57]: 16 µM
- TGI [57]: 30 µM
- GI50 [58]: 12.4 µM
- TGI [58]: 27.3 µM

Compound: Cn1c(Nc2ccc(C(F)(F)F)cc2)nc2cc(Oc3ccnc(-c4ncc(C(F)(F)F)[nH]4)c3)ccc21
- GI50 [1]: 2.22 µM
- TGI [1]: 13.9 µM
- GI50 [2]: 0.0297 µM
- TGI [2]: 0.851 µM
- GI50 [3]: 0.231 µM
- TGI [3]: 11.7 µM
- GI50 [4]: 0.0354 µM
- TGI [4]: 11.7 µM
- GI50 [5]: 0.155 µM
- TGI [5]: 12.2 µM
- GI50 [6]: 0.0609 µM
- TGI [6]: 15.4 µM
- GI50 [7]: 0.251 µM
- TGI [7]: 5.17 µM
- GI50 [8]: 0.367 µM
- TGI [8]: 10.6 µM
- GI50 [9]: 2.05 µM
- TGI [9]: 17.3 µM
- GI50 [10]: 2.33 µM
- TGI [10]: 19.1 µM
- GI50 [11]: 1.25 µM
- TGI [11]: 13.1 µM
- GI50 [12]: 0.0787 µM
- TGI [12]: 7.06 µM
- GI50 [13]: 0.0697 µM
- TGI [13]: 12.8 µM
- GI50 [14]: 0.365 µM
- TGI [14]: 7.06 µM
- GI50 [15]: 2.85 µM
- TGI [15]: 18.6 µM
- GI50 [16]: 0.408 µM
- TGI [16]: 7.26 µM
- GI50 [17]: 0.0555 µM
- TGI [17]: 9.41 µM
- GI50 [18]: 0.124 µM
- TGI [18]: 3.56 µM
- GI50 [19]: 0.0668 µM
- TGI [19]: 15.4 µM
- GI50 [20]: 1.76 µM
- TGI [20]: 25 µM
- GI50 [21]: 1.3 µM
- TGI [21]: 12.5 µM
- GI50 [22]: 0.0599 µM
- TGI [22]: 1.78 µM
- GI50 [23]: 0.0338 µM
- TGI [23]: 1.33 µM
- GI50 [24]: 0.0284 µM
- TGI [24]: 0.154 µM
- GI50 [25]: 3.38 µM
- TGI [25]: 14.4 µM
- GI50 [26]: 0.803 µM
- TGI [26]: 12.2 µM
- GI50 [27]: 0.0774 µM
- TGI [27]: 9.44 µM
- GI50 [28]: 0.319 µM
- TGI [28]: 8.76 µM
- GI50 [29]: 0.492 µM
- TGI [29]: 16.5 µM
- GI50 [30]: 0.31 µM
- TGI [30]: 7.8 µM
- GI50 [31]: 0.197 µM
- TGI [31]: 7.61 µM
- GI50 [32]: 0.307 µM
- TGI [32]: 11 µM
- GI50 [33]: 1.64 µM
- TGI [33]: 13.4 µM
- GI50 [34]: 1.54 µM
- TGI [34]: 7.54 µM
- GI50 [35]: 1.21 µM
- TGI [35]: 14.4 µM
- GI50 [36]: 1.53 µM
- TGI [36]: 17.4 µM
- GI50 [37]: 0.775 µM
- TGI [37]: 14.1 µM
- GI50 [38]: 1.53 µM
- TGI [38]: 17.2 µM
- GI50 [39]: 1.49 µM
- TGI [39]: 15.2 µM
- GI50 [40]: 0.0544 µM
- TGI [40]: 7.32 µM
- GI50 [41]: 0.966 µM
- TGI [41]: 14.5 µM
- GI50 [42]: 0.402 µM
- TGI [42]: 11.8 µM
- GI50 [43]: 0.232 µM
- TGI [43]: 13.7 µM
- GI50 [44]: 0.0387 µM
- TGI [44]: 0.728 µM
- GI50 [45]: 0.126 µM
- TGI [45]: 4.79 µM
- GI50 [46]: 0.34 µM
- TGI [46]: 4.96 µM
- GI50 [47]: 0.0385 µM
- TGI [47]: 19.1 µM
- GI50 [48]: 0.0855 µM
- TGI [48]: 16.6 µM
- GI50 [49]: 1.04 µM
- TGI [49]: 20.1 µM
- GI50 [50]: 0.297 µM
- TGI [50]: 26.2 µM
- GI50 [51]: 0.0457 µM
- TGI [51]: 13.2 µM
- GI50 [52]: 0.578 µM
- TGI [52]: 12.7 µM
- GI50 [53]: 2.3 µM
- TGI [53]: 17.4 µM
- GI50 [54]: 2.91 µM
- TGI [54]: 16.2 µM
- GI50 [55]: 0.154 µM
- TGI [55]: 12.9 µM
- GI50 [56]: 0.131 µM
- TGI [56]: 0.977 µM
- GI50 [57]: 0.0519 µM
- TGI [57]: 3.89 µM
- GI50 [58]: 0.239 µM
- TGI [58]: 10.2 µM

— PubChem BioAssay (NCI)
